# According to CN114306299A, “贝利司他在制备缓解和/或治疗缺血性脑卒中药物中的应用” (Institute of Materia Medica of CAMS and PUMC, priority 2020, dated 2022):
# What was measured:
# MCAO/R rats (MCAO/R大鼠) [1] = test: Foot-fault test in MCAO/R rats, days 1, 3, 7, 14 (2.4); conditions: from day 7; treated groups (10, 30, 50 mg/kg), once daily for 14 days from 24 h after reperfusion; *P<0.05, **P<0.01 vs. model group; n=6~9
# tumor cells (肿瘤细胞) = conditions: cited from earlier work
# MCAO/R rats (MCAO/R大鼠) [2] = test: Neurological function score (mNSS) in MCAO/R rats 24 h after reperfusion (1.3); format: in vivo, rat; conditions: i.p. at reperfusion; for mNSS score vs. model group: **P<0.01 vs. model group, n=7~11
# MCAO/R rats (MCAO/R大鼠) [3] = test: Recovery of neurological function (mNSS) in MCAO/R rats, days 1, 3, 7, 14 (2.3)
# MCAO/R rats (MCAO/R大鼠) [4] = test: TTC staining of cerebral infarct volume in MCAO/R rats, 24 h after reperfusion (1.2); format: in vivo, rat; conditions: i.p. at reperfusion; for cerebral infarct volume vs. model group: **P<0.01 vs. model group, n=7~11
# [5] = tested on: histone deacetylase, HDAC (组蛋白去乙酰化酶, HDAC); conditions: in vitro; cited from earlier work
# [6] = treated subjects in clinical studies; cited from earlier work
# [7] = tested on: certain transformed cells (某些转化细胞); conditions: in vitro, nanomolar concentration (<250nM); cited from earlier work
# MCAO/R rats (MCAO/R大鼠) [8] = test: Survival rate of MCAO/R rats, 14-day dosing (2.2); format: in vivo, rat; conditions: treated groups (10, 30, 50 mg/kg); dosing from 24 h after reperfusion, once daily for 14 days; n=9~18; compared with model group (low survival)
smiles,measurement,setting,value
O=C(/C=C/c1cccc(S(=O)(=O)Nc2ccccc2)c1)NO [贝利司他],foot-fault rate vs. model group,MCAO/R rats (MCAO/R大鼠) [1],明显降低
same,cytotoxicity to tumor cells compared with normal cells,tumor cells (肿瘤细胞),强于正常细胞
same,neurological motor function score vs. model group,MCAO/R rats (MCAO/R大鼠) [2]; dose group not named,显著降低
same,mNSS score vs. model group,MCAO/R rats (MCAO/R大鼠) [2]; high dose 50 mg/kg,显著低于模型组
same,mNSS score vs. model group,MCAO/R rats (MCAO/R大鼠) [2]; medium dose 30 mg/kg,显著低于模型组
same,mNSS score vs. model group,"MCAO/R rats (MCAO/R大鼠) [3]; from day 3, treated groups (10, 30, 50 mg/kg), once daily for 14 days from 24 h after reperfusion, *P<0.05, **P<0.01 vs. model group, n=6~9",显著低于模型组
same,neurological motor function,"MCAO/R rats (MCAO/R大鼠) [3]; treated groups, with increasing time of administration (once daily for 14 days)",神经运动功能恢复
same,infarct volume vs. model group,MCAO/R rats (MCAO/R大鼠) [4]; dose group not named,能够减少MCAO/R大鼠的梗死体积
same,cerebral infarct volume vs. model group,MCAO/R rats (MCAO/R大鼠) [4]; high dose 50 mg/kg,显著降低
same,cerebral infarct volume vs. model group,MCAO/R rats (MCAO/R大鼠) [4]; medium dose 30 mg/kg,显著降低
same,concentration at which HDAC activity is inhibited,[5],< 250 nM
same,most common side effects,[6],恶心、呕吐、乏力、发热和贫血
same,accumulation of acetylated histones and other proteins,[7],可致乙酰化组蛋白及其他蛋白积聚
same,cell cycle arrest or apoptosis of certain transformed cells,[7],诱导细胞周期停滞或某些转化细胞凋亡
same,survival rate,MCAO/R rats (MCAO/R大鼠) [8],明显增高
